Reference: ChEMBL document CHEMBL3779873, “Rubrolide analogues and their derived lactams as potential anticancer agents” (Medchemcomm, 2016)
In brackets after ≈: the same amount, converted by molar mass. Activity calls are given as the source filed them. The calls are words filed in the database; no cut-off is given here.

What was measured:
[1] = tested on: HL-60; assay: Induction of apoptosis in human HL60 cells assessed as decrease in viable cells after 24 hrs by acridine orange/ethidium bromide staining based fluorescence microscopy; type: functional, cell-based
[2] = tested on: HL-60; assay: Induction of apoptosis in human HL60 cells assessed as chromatin condensation at 2.5 to 10 uM after 24 hrs by giemsa staining-based light microscopy analysis; type: functional, cell-based
[3] = tested on: HL-60; assay: Induction of cell cycle arrest in human HL60 cells assessed as accumulation at G2/M phase at 10 uM after 24 hrs by annexin V/propidium iodide staining based flow cytometry (reference value: 19.04 +/- 1.10 %); type: functional
[4] = tested on: HL-60; assay: Induction of apoptosis in human HL60 cells assessed as chromatolysis at 2.5 to 10 uM after 24 hrs by giemsa staining-based light microscopy analysis; type: functional, cell-based
[5] = Cytotoxicity against human HCT116 cells assessed as reduction in cell viability at 25 ug/mL after 72 hrs by MTT assay; type: functional, HCT-116
[6] = tested on: HL-60; assay: Induction of apoptosis in human HL60 cells assessed as mitochondrial depolarization after 24 hrs by rhodamine-123 as fluorescent dye based flow cytometry; type: functional, cell-based
[7] = tested on: HL-60; assay: Induction of apoptosis in human HL60 cells assessed as decrease in viable cells at 10 uM after 24 hrs by acridine orange/ethidium bromide staining based fluorescence microscopy; type: functional
[8] = tested on: HL-60; assay: Induction of cell cycle arrest in human HL60 cells assessed as accumulation at S phase at 5 uM after 24 hrs by annexin V/propidium iodide staining based flow cytometry (reference value: 27.64 +/- 2.15 %); type: functional
[9] = Cytotoxicity against human SF295 cells after 72 hrs by MTT assay; type: functional, SF-295
[10] = tested on: HL-60; assay: Induction of apoptosis in human HL60 cells assessed as intranuclear vacuoles at 2.5 to 10 uM after 24 hrs by giemsa staining-based light microscopy analysis; type: functional, cell-based
[11] = Cytotoxicity against human OVCAR8 cells after 72 hrs by MTT assay; type: functional, OVCAR-8
[12] = Cytotoxicity against human SF295 cells assessed as reduction in cell viability at 25 ug/mL after 72 hrs by MTT assay; type: functional, SF-295
[13] = tested on: HL-60; assay: Induction of apoptosis in human HL60 cells assessed as increase in apoptotic cells after 24 hrs by acridine orange/ethidium bromide staining based fluorescence microscopy; type: functional, cell-based
[14] = tested on: HL-60; assay: Induction of apoptosis in human HL60 cells assessed as increase in apoptotic cells at 10 uM after 24 hrs by acridine orange/ethidium bromide staining based fluorescence microscopy; type: functional
[15] = tested on: HL-60; assay: Induction of apoptosis in human HL60 cells assessed as cytoplasmic budding at 2.5 to 10 uM after 24 hrs by giemsa staining-based light microscopy analysis; type: functional, cell-based
[16] = tested on: HL-60; assay: Induction of cell cycle arrest in human HL60 cells assessed as accumulation at S phase at 2.5 uM after 24 hrs by annexin V/propidium iodide staining based flow cytometry (reference value: 27.64 +/- 2.15 %); type: functional
[17] = tested on: HL-60; assay: Induction of apoptosis in human HL60 cells assessed as increase in apoptotic cells at 5 uM after 24 hrs by acridine orange/ethidium bromide staining based fluorescence microscopy; type: functional
[18] = tested on: HL-60; assay: Induction of apoptosis in human HL60 cells assessed as mitochondrial depolarization at 2.5 uM after 24 hrs by rhodamine-123 as fluorescent dye based flow cytometry; type: functional
[19] = tested on: HL-60; assay: Induction of cell cycle arrest in human HL60 cells assessed as accumulation at sub-G0/G1 phase at 2.5 uM after 24 hrs by annexin V/propidium iodide staining based flow cytometry (reference value: 6.10 +/- 0.28 %); type: functional
[20] = tested on: HL-60; assay: Induction of apoptosis in human HL60 cells assessed as DNA fragmentation after 24 hrs by annexin V/propidium iodide staining based flow cytometry; type: functional, cell-based
[21] = Cytotoxicity against mouse L929 cells after 72 hrs by MTT assay; type: cell-based; conditions: read-out: RC50
[22] = tested on: HL-60; assay: Induction of apoptosis in human HL60 cells assessed as phosphatidylserine externalization at 2.5 uM after 24 hrs by annexin V/propidium iodide staining based flow cytometry; type: functional
[23] = Cytotoxicity against human HCT116 cells after 72 hrs by MTT assay; type: functional, HCT-116
[24] = tested on: HL-60; assay: Induction of apoptosis in human HL60 cells assessed as decrease in viable cells at 5 uM after 24 hrs by acridine orange/ethidium bromide staining based fluorescence microscopy; type: functional
[25] = tested on: HL-60; assay: Induction of apoptosis in human HL60 cells assessed as mitochondrial depolarization at 5 uM after 24 hrs by rhodamine-123 as fluorescent dye based flow cytometry; type: functional
[26] = tested on: HL-60; assay: Induction of cell cycle arrest in human HL60 cells assessed as accumulation at G2/M phase at 5 uM after 24 hrs by annexin V/propidium iodide staining based flow cytometry (reference value: 19.04 +/- 1.10 %); type: functional
[27] = tested on: HL-60; assay: Induction of cell cycle arrest in human HL60 cells assessed as accumulation at G0/G1 phase at 5 uM after 24 hrs by annexin V/propidium iodide staining based flow cytometry (reference value: 45.81 +/- 3.16 %); type: functional
[28] = Cytotoxicity against human OVCAR8 cells assessed as reduction in cell viability at 25 ug/mL after 72 hrs by MTT assay; type: functional, OVCAR-8
[29] = tested on: HL-60; assay: Induction of cell cycle arrest in human HL60 cells assessed as accumulation at G0/G1 phase at 10 uM after 24 hrs by annexin V/propidium iodide staining based flow cytometry (reference value: 45.81 +/- 3.16 %); type: functional
[30] = tested on: HL-60; assay: Induction of cell cycle arrest in human HL60 cells assessed as accumulation at sub-G0/G1 phase at 10 uM after 24 hrs by annexin V/propidium iodide staining based flow cytometry (reference value: 6.10 +/- 0.28 %); type: functional
[31] = tested on: HL-60; assay: Induction of cell cycle arrest in human HL60 cells assessed as accumulation at sub-G0/G1 phase at 5 uM after 24 hrs by annexin V/propidium iodide staining based flow cytometry (reference value: 6.10 +/- 0.28 %); type: functional
[32] = tested on: HL-60; assay: Induction of apoptosis in human HL60 cells assessed as increase in necrotic cells at 10 uM after 24 hrs by acridine orange/ethidium bromide staining based fluorescence microscopy; type: functional
[33] = tested on: HL-60; assay: Induction of apoptosis in human HL60 cells assessed as reduction in cellular and nuclear volumes at 2.5 to 10 uM after 24 hrs by giemsa staining-based light microscopy analysis; type: functional, cell-based
[34] = tested on: HL-60; assay: Induction of apoptosis in human HL60 cells assessed as mitochondrial depolarization at 10 uM after 24 hrs by rhodamine-123 as fluorescent dye based flow cytometry; type: functional
[35] = tested on: HL-60; assay: Induction of apoptosis in human HL60 cells assessed as phosphatidylserine externalization at 10 uM after 24 hrs by annexin V/propidium iodide staining based flow cytometry; type: functional
[36] = tested on: HL-60; assay: Induction of apoptosis in human HL60 cells assessed as increase in necrotic cells after 24 hrs by acridine orange/ethidium bromide staining based fluorescence microscopy; type: functional, cell-based
[37] = tested on: HL-60; assay: Induction of apoptosis in human HL60 cells assessed as phosphatidylserine externalization at 5 uM after 24 hrs by annexin V/propidium iodide staining based flow cytometry; type: functional
[38] = tested on: HL-60; assay: Induction of cell cycle arrest in human HL60 cells assessed as accumulation at G0/G1 phase at 2.5 uM after 24 hrs by annexin V/propidium iodide staining based flow cytometry (reference value: 45.81 +/- 3.16 %); type: functional
[39] = Cytotoxicity against human HL60 cells after 72 hrs by MTT assay; type: functional, HL-60
[40] = tested on: HL-60; assay: Induction of cell cycle arrest in human HL60 cells assessed as accumulation at S phase at 10 uM after 24 hrs by annexin V/propidium iodide staining based flow cytometry (reference value: 27.64 +/- 2.15 %); type: functional
[41] = tested on: HL-60; assay: Induction of cell cycle arrest in human HL60 cells assessed as accumulation at G2/M phase at 2.5 uM after 24 hrs by annexin V/propidium iodide staining based flow cytometry (reference value: 19.04 +/- 1.10 %); type: functional
[42] = tested on: HT-29; assay: Cytotoxicity against human HT-29 cells; type: functional; conditions: read-out: ED50 (the source's name)

## O=C1O/C(=C\c2ccc(Br)cc2)C(Cl)=C1Cl
[1]
  Activity: Dose-dependent effect
[2]
  Activity: Active
[3]
  Activity: 2.71%
[4]
  Activity: Active
[5]
  Activity: 98.27%
[6]
  Activity: Dose-dependent effect
[7]
  Activity: 47.3%
[8]
  Activity: 14.77%
[9]
  RC50: 14.68 µM
[10]
  Activity: Active
[11]
  RC50: 13.68 µM
[12]
  Activity: 94.12%
[13]
  Activity: Dose-dependent effect
[14]
  Activity: 46.8%
[15]
  Activity: Active
[16]
  Activity: 24.16%
[17]
  Activity: 24.1%
[18]
  Activity: 21.7%
[19]
  Activity: 17.5%
[20]
  Activity: Dose-dependent effect
[21]
  CC50 at 72 h: > 50 µM
[22]
  Activity: 9.5%
[23]
  RC50: 8.18 µM
[24]
  Activity: 17.7%
[25]
  Activity: 37.1%
[26]
  Activity: 4.68%
[27]
  Activity: 43.19%
[28]
  Activity: 98.99%
[29]
  Activity: 33.59%
[30]
  Activity: 51.26%
[31]
  Activity: 29.63%
[32]
  Activity: 12.7%
[33]
  Activity: Active
[34]
  Activity: 56.2%
[35]
  Activity: 29%
[36]
  Activity: Dose-dependent effect
[37]
  Activity: 19%
[38]
  Activity: 45.29%
[39]
  RC50: 3 µM
[40]
  Activity: 7.26%
[41]
  Activity: 7.39%

## O=C1O/C(=C\c2ccc(O)c(Br)c2)C(c2ccc(O)cc2)=C1Cl
[42]
  EC50: 1.2 µg/mL (≈ 3.05 µM)

## O=C1O/C(=C\c2ccccc2Br)C(Cl)=C1Cl
[5]
  Activity: 97.58%
[9]
  RC50: 32.64 µM
[11]
  RC50: 11.64 µM
[12]
  Activity: 92.81%
[23]
  RC50: 32.22 µM
[28]
  Activity: 93.14%
[39]
  RC50: 10.01 µM

## O=C1O/C(=C\c2ccc(O)c(Br)c2)C(c2ccc(O)c(Br)c2)=C1Cl
[42]
  EC50: 1.2 µg/mL (≈ 2.54 µM)
